These results are taken from publication PMC7380166, “How to Study the Metabolism of New Psychoactive Substances for the Purpose of Toxicological Screenings—A Follow-Up Study Comparing Pooled Human Liver S9, HepaRG Cells, and Zebrafish Larvae” (Frontiers in Chemistry, 2020).

Data set [1] in a line: Incubations with pooled human liver S9 fraction (pHLS9), metabolite identification by LC-HRMS/MS. The data set is classed as in vitro ADME. The note with it: 25 μM 4F-MDMB-BINACA, one replicate of n = 2, n.d. = not detected; for Absolute peak area, pHLS9 6 h [25 μM]: 6 h incubation; for Absolute peak area, pHLS9 1 h [25 μM]: 1 h incubation. As for the experimental part:
According to published procedures (Richter et al., [2017b], [2019b]; Caspar et al., [2018b]; Wagmann et al., [2019b],[c]), the final incubation volume per reaction tube was 150 μl, with a final protein concentration of 2 mg/ml. The given concentrations represent final concentrations. A preincubation for 10 min at 37°C with UGT reaction mixture solution B (containing alamethicin, 25 μg/ml), MgCl2 (2.5 mM), NADP^+ (0.6 mM), isocitrate (2.5 mM), isocitrate dehydrogenase (0.8 U/ml), superoxide dismutase (100 U/ml), acetyl coenzyme A (0.1 mM), phosphate buffer (90 mM, pH 7.4), and pHLS9 (2 mg/ml) was done. Afterwards, UGT reaction mixture solution A (containing UDP glucuronic acid, 2.5 mM), PAPS (40 μM), SAM (1.2 mM), dithiothreitol (1 mM), and glutathione (10 mM) were added, as well as 25 μM 4F-MDMB-BINACA to start the reactions. The mixture was incubated for 360 min. Total amount of organic solvent in incubation mixtures was <2% (Chauret et al., [1998]). After 60 min, an aliquot of the reaction mixture (60 μl) was transferred in another reaction tube containing 20 μl of ice-cold acetonitrile to terminate the reactions. The remaining aliquot (90 μl) was incubated for an additional 300 min, and then the reactions were stopped by adding 30 μl of ice-cold acetonitrile. Thereafter, the reaction tubes were cooled at −20°C for 30 min prior to centrifugation at 18,407 × g for 2 min. The supernatants (50 μl) were transferred into autosampler vials, and 1 μl was injected onto the LC-HRMS/MS system. Control samples without pHLS9 and blank samples without substrate were prepared to confirm the absence of non-metabolically formed and interfering compounds, respectively. All incubations were performed in duplicate.
According to a previous study (Richter et al., [2019a]), a Thermo Fisher Scientific (TF, Dreieich, Germany) Dionex UltiMate 3000 Rapid Separation (RS) UHPLC system with a quaternary UltiMate 3000 RS pump and an UltiMate 3000 RS autosampler controlled by the TF Chromeleon software version 6.8 was used. The LC system was coupled to an Orbitrap-based TF Q-Exactive Plus equipped with a heated electrospray ionization II (HESI-II) source. Calibration was done prior to analysis with a Positive Cal Mix (Supelco, Bellefonte, PA, USA) at a flow rate of 3 μl/min using a syringe pump. The conditions of the LC system were as follows: TF Accucore PhenylHexyl column (100 × 2.1 mm, 2.6 μm particle size); gradient elution with 2 mM ammonium formate solution containing 0.1% (v/v) formic acid (eluent A) and 2 mM ammonium formate solution in acetonitrile/methanol (50:50, v/v) containing 0.1% (v/v) formic acid, and 1% (v/v) water (eluent B). […] The following gradient was used: 0–1.0 min hold 1% B, 1–10 min to 99% B, 10–11.5 min hold 99% B, 11.5–13.5 min hold 1% B. The HESI-II source conditions were as follows: ionization mode, positive; heater temperature, 320°C; ion transfer capillary temperature, 320°C; sheath gas, 60 arbitrary units (AU); auxiliary gas, 10 AU; spray voltage, 4.00 kV; and S-lens RF level, 50.0. Mass spectrometry experiments were performed using high-resolution (HR) full scan mode and a targeted MS^2 mode with an inclusion list for each NPS. The inclusion list contained m/z values of metabolites, which were likely to be formed for example hydroxy, oxo, carboxy, dealkyl, demethylenylated, and defluorinated metabolites (phase I) as well as sulfates and glucuronides (phase II) and combinations of them. Full scan settings were as follows: resolution, 35,000; automatic gain control (AGC) target, 3e6; maximum injection time (IT), 120 ms; scan ranges, 3,4-DMA-NBOMe m/z 100–700, ephylone m/z 200–600, 4F-MDMB-BINACA m/z 150–700, 4F-PHP m/z 200–600, and 1P-LSD m/z 250–700. The settings for the targeted MS^2 mode with the respective inclusion lists were as follows: resolution, 17,500; AGC target, 2e5; maximum IT, 250 ms; loop count, 5; isolation window, 1.0 m/z; stepped normalized collision energy (NCE), 17.5, 35, 52.5%; pick others, enabled. […]

Data set [2] concerns zebrafish larvae. Kind of data set: Zebrafish larvae exposure, metabolite identification by LC-HRMS/MS. As to conditions: 24 h; for Absolute peak area, Zebrafish larvae [25 μM]: 25 μM 4F-MDMB-BINACA in medium; for Absolute peak area, Zebrafish larvae [25 μM] / Absolute peak area, Zebrafish larvae [100 µM]: larvae 4 dpf, larvae extract, one replicate of n = 3, n.d. = not detected; for Absolute peak area, Zebrafish larvae [100 µM]: 100 µM parent NPS in medium.

In another data set the test system is HepaRG cells. As to the kind of experiment: Incubations with HepaRG cells, metabolite identification by LC-HRMS/MS. The data set is classed as in vitro ADME, human. The note with it: 24 h; for Absolute peak area, HepaRG [250 μM]: 250 μM parent NPS; for Absolute peak area, HepaRG [250 μM] / Absolute peak area, HepaRG [25 μM]: cell culture medium, one replicate of n = 3, n.d. = not detected; for Absolute peak area, HepaRG [25 μM]: 25 μM parent NPS.

For data set [3] the following is noted: human biosamples after intake of ephylone and 4F-PHP; ref Wagmann et al., [2019b]; cited from earlier work.
For data set [4] the following is noted: cited from earlier work; for Detection in pHLS9 [25 µM]: n = 2, according to literature.
For another data set, the system named is monooxygenases. As to conditions: initial monooxygenases activity screenings described elsewhere; ref Caspar et al., [2018a]; Wagmann et al., [2019b],[c]; cited from earlier work.
In data set [5] the test system is zebrafish larvae. Kind of data set: In vivo maximum-tolerated concentration (MTC) study in zebrafish larvae. Details: species or system zebrafish (Danio rerio). The note with it: for Survival rate: 24-h treatment, fifteen larvae. The procedure:
Internal protocols based on published standard methods (Westerfield, [2007]) were used to perform zebrafish husbandry and the maximum-tolerated concentration (MTC) testing was based on a previous study (Richter et al., [2019a]). Danieau's medium [17 mM NaCl, 2 mM KCl, 0.12 mM MgSO4, 1.8 mM Ca(NO3)2, 1.5 mM HEPES, pH 7.1–7.3, and 1.2 μM methylene blue] at 28°C was used to raise zebrafish larvae of the AB wild-type strain. For MTC testing, 96-well plates were used with 100 μl of medium and one larva per well. Drug exposition was started 4 dpf using 0, 0.01, 0.1, 1, 10, 50, or 100 μM final concentrations of 3,4-DMA-NBOMe, ephylone, 4F-MDMB-BINACA, 4F-PHP, or 1P-LSD, respectively. The drug exposure in the incubator at 28°C lasted 24 h. The final DMSO concentration was 1% (v/v) for all experiments. Monitoring of the larvae was done using a LEICA M205 FA stereo microscope (Leica Mikrosysteme Vertrieb GmbH, Wetzlar, Germany) to detect developmental defects and/or decreased survival rates. Fifteen larvae were used for each experiment.

Setting [6] is: ephylone and metabolites, ref Wagmann et al., 2019a.
Setting [7] is: 25 μM, ref Caspar et al., [2018b].

Read-outs that look alike come from different tables or passages of the source.

Take `CC1(C)COC(=O)C1NC(=O)c1nn(CCCC(=O)O)c2ccccc12` (stereo not drawn) [MB9]: in data set [1], the “Absolute peak area, pHLS9 6 h [25 μM]” value stood at 1.57E+05. Moreover, the “Absolute peak area, Zebrafish larvae [25 μM]” value with zebrafish larvae [2] turned out to be 2.53E+06.

On to `CC(C)(CO)C(NC(=O)c1nn(CCCCF)c2ccccc12)C(=O)O` (stereo not drawn) [MB13], for which the “Absolute peak area, HepaRG [250 μM]” value in the data set with HepaRG cells is 3.13E+07. In data set [1], the “Absolute peak area, pHLS9 1 h [25 μM]” value is given as 7.30E+03 and the “Absolute peak area, pHLS9 6 h [25 μM]” value is reported as 6.42E+05. The “Absolute peak area, Zebrafish larvae [25 μM]” value with zebrafish larvae [2] was 4.57E+05.

In the case of `CC(C)(C)[C@H](NC(=O)c1n[nH]c2ccccc12)C(=O)O` [MB3], in the data set with HepaRG cells, the “Absolute peak area, HepaRG [25 μM]” value was found to be 3.99E+05 and the “Absolute peak area, HepaRG [250 μM]” value is listed as 6.92E+06. In addition, in data set [1], the “Absolute peak area, pHLS9 1 h [25 μM]” value amounted to 9.07E+05 and the “Absolute peak area, pHLS9 6 h [25 μM]” value turned out to be 1.27E+06.

For the compound `CCCC(N)C(=O)c1ccc2c(c1)OCO2` (stereo not drawn) [ME1], in data set [3], the “Signals with the highest abundance in human plasma and/or urine” value is on record as “highest ephylone-related signals”. In addition, in the data set on HepaRG cells, the “Absolute peak area, HepaRG [25 μM]” value worked out at 4.14E+06 and the “Absolute peak area, HepaRG [250 μM]” value is recorded as 2.21E+07. In addition, the “Detection in pHLS9 [25 µM]” value in data set [4] (setting [6]) is “+”. Moreover, the “Absolute peak area, Zebrafish larvae [100 µM]” value (shortened to “Absolute peak area … [100 µM]”) with zebrafish larvae [2] amounted to 4.12E+06.

For the compound `CCCC(NCC)C(=O)c1ccc(O)c(O)c1` (stereo not drawn) [ME2], in data set [3], the “Signals with the highest abundance in human plasma and/or urine” value is on record as “highest ephylone-related signals”. In the data set on HepaRG cells, the “Absolute peak area, HepaRG [25 μM]” value is 1.72E+05 and the “Absolute peak area, HepaRG [250 μM]” value was 6.37E+05. Besides, the “Detection in pHLS9 [25 µM]” value in data set [4] (setting [6]) is “+”. Moreover, the “Absolute peak area … [100 µM]” value in the data set with zebrafish larvae [2] was determined as 4.44E+06.

In the case of `CC(C)(C)[C@H](NC(=O)c1nn(CCCCO)c2ccccc12)C(=O)O` [MB7], in the data set on HepaRG cells, the “Absolute peak area, HepaRG [25 μM]” value stood at 1.25E+06 and the “Absolute peak area, HepaRG [250 μM]” value is 1.34E+07. For the same compound, the “Absolute peak area, pHLS9 6 h [25 μM]” value in data set [1] stood at 1.91E+06. For the same compound, the “Absolute peak area, Zebrafish larvae [25 μM]” value with zebrafish larvae [2] came out at 5.96E+04.

`CC1(C)COC(=O)C1NC(=O)c1nn(CCCCO)c2ccccc12` (stereo not drawn) [MB5]: the “Absolute peak area, HepaRG [250 μM]” value in the data set with HepaRG cells turned out to be 2.40E+05. Also, the “Absolute peak area, pHLS9 6 h [25 μM]” value in data set [1] is given as 1.26E+06. The “Absolute peak area, Zebrafish larvae [25 μM]” value with zebrafish larvae [2] is reported as 9.42E+05.

`COC(=O)[C@@H](NC(=O)c1nn(CCCC(=O)O)c2ccccc12)C(C)(C)C` [MB15]: in the data set with HepaRG cells, the “Absolute peak area, HepaRG [25 μM]” value is listed as 1.15E+04 and the “Absolute peak area, HepaRG [250 μM]” value is 8.00E+06. Also, in data set [1], the “Absolute peak area, pHLS9 1 h [25 μM]” value was 2.16E+06 and the “Absolute peak area, pHLS9 6 h [25 μM]” value is recorded as 3.34E+06. For the same compound, the “Absolute peak area, Zebrafish larvae [25 μM]” value in the data set on zebrafish larvae [2] stood at 2.60E+07.

As for `COc1ccccc1CNC(C)Cc1ccc(OC)c(OC)c1` (stereo not drawn) [3,4-DMA-NBOMe, 1-[3,4-dimethoxy]-N-[ortho-methoxybenzyl]propane-2-amine], in the data set on HepaRG cells, the “Absolute peak area, HepaRG [25 μM]” value is reported as 1.48E+09 and the “Absolute peak area, HepaRG [250 μM]” value is 1.03E+10. For the same compound, in the data set with HepaRG cells (25 μM), the “Number of phase I metabolites detected, HepaRG [25 μM]” value is 6 and the “Number of phase II metabolites detected, HepaRG [25 μM]” value amounted to 4. In addition, in the data set on HepaRG cells (250 μM), the “Number of phase I metabolites detected, HepaRG [250 μM]” value turned out to be 10 and the “Number of phase II metabolites detected, HepaRG [250 μM]” value worked out at 7. For the same compound, in data set [4] (setting [7]), the “Number of phase I metabolites detected, pHLS9 [25 μM]” value was 6 (Caspar et al., [2018b]) and the “Number of phase II metabolites detected, pHLS9 [25 μM]” value was 5 (Caspar et al., [2018b]). Besides, the “Detection in pHLS9 [25 µM]” value in data set [4] (3,4-DMA-NBOMe and metabolites, ref Caspar et al., 2018) is recorded as “+”. Besides, the “Monooxygenases involved in metabolism” value in the data set with monooxygenases was “CYP3A4 was described to be involved in the N-dealkylation and CYP2C19 and CYP2D6 in the O-demethylation and hydroxylation”. Besides, in the data set with zebrafish larvae [2] (100 μM in medium), the “Number of phase I metabolites detected, Zebrafish larvae” value is on record as 9 and the “Number of phase II metabolites detected, Zebrafish larvae” value is reported as 7. The “Absolute peak area … [100 µM]” value in the data set with zebrafish larvae [2] is recorded as 6.22E+09. In addition, the Survival rate in the data set with zebrafish larvae [5] (0.01 μM, larvae 4 dpf) was 100%. The same compound gave a Survival rate with zebrafish larvae [5] (0.1 μM, larvae 4 dpf) of 100%. Moreover, the Survival rate with zebrafish larvae [5] (1 μM, larvae 4 dpf) stood at 100%. This compound also gave a Survival rate in the data set on zebrafish larvae [5] (10 μM, larvae 4 dpf) of 100%. Moreover, the Survival rate with zebrafish larvae [5] (50 μM, larvae 4 dpf) was found to be 100%. In the data set on zebrafish larvae [5] (100 μM, larvae 4 dpf), this compound gave a Survival rate of 100%. For the same compound, the “Survival rates for all tested concentrations” value in the data set on zebrafish larvae [5] (0.01 to 100 μM, larvae 4 dpf, 24 h) amounted to 100%. In addition, in the data set on zebrafish larvae [5] (24 h exposure via medium), the “Concentration considered non-toxic for zebrafish larvae (4 dpf)” value is 100 µM. For the same compound, the Malformations entry in the data set on zebrafish larvae [5] (up to 100 μM, larvae 4 dpf, 24 h) was “no malformations”.
